Where a name gives a salt, the structure may show the parent alone. Read-outs that look alike come from different tables or passages of the source.
Columns and labels:
Staph. aureus ATCC 6538P = assay: In vitro antibacterial activity, agar dilution MIC; type: cell-based; details: Staphylococcus aureus, ATCC6538P
Description: (§1) Each plate was inoculated with 1:100 (or 1:10 for slow-growing strains, primarily Micrococcus and Streptococcus) dilutions of up to 32 different microorganisms, using a Steers replicator block calibrated to deliver approximately 10^4 colony forming units (CFUs). The inoculated plates were incubated at from about 35° C. to about 37° C. for approximately 20-24 hours. In addition, a control plate using BHI agar containing no test compound was prepared and incubated at the beginning and at the end of each test. The quinolone antibacterial ciprofloxacin was used as a control ("Cntl").
(§2) The MIC was defined as the lowest concentration of test compound yielding no growth (a slight haze or sparsely isolated colonies at the inoculum spot) as compared to the growth control containing no test compound.

Staph. aureus A5177 = assay: In vitro antibacterial activity, agar dilution MIC; type: cell-based; details: Staphylococcus aureus
Description: as §1, §2

Staph. aureus 5278 = assay: In vitro antibacterial activity, agar dilution MIC; type: cell-based; details: Staphylococcus aureus
Description: as §1, §2

Staph. aureus 642A = assay: In vitro antibacterial activity, agar dilution MIC; type: cell-based; details: Staphylococcus aureus
Description: as §1, §2

Staph. aureus NCTC10649M = assay: In vitro antibacterial activity, agar dilution MIC; type: cell-based; details: Staphylococcus aureus
Description: as §1, §2

Staph. aureus CMX 553 = assay: In vitro antibacterial activity, agar dilution MIC; type: cell-based; details: Staphylococcus aureus, CMX553
Description: as §1, §2

[1] = system: Staph. aureus 1775 Cipro. R.; assay: In vitro antibacterial activity, agar dilution MIC; type: cell-based; details: Staphylococcus aureus
Description: as §1, §2

Staph. epidermidis 3519 = assay: In vitro antibacterial activity, agar dilution MIC; type: cell-based; details: Staphylococcus epidermidis
Description: as §1, §2

[2] = system: Entero. faecium ATCC 8043; assay: In vitro antibacterial activity, agar dilution MIC; type: cell-based; details: Enterococcus faecium, ATCC8043
Description: as §1, §2

Strep. bovis A5169 = assay: In vitro antibacterial activity, agar dilution MIC; type: cell-based; details: Streptococcus equinus
Description: as §1, §2

[3] = system: Strep. agalactiae CMX 508; assay: In vitro antibacterial activity, agar dilution MIC; type: cell-based; details: Streptococcus agalactiae, CMX508
Description: as §1, §2

Strep. pyogenes EES61 = assay: In vitro antibacterial activity, agar dilution MIC; type: cell-based; details: Streptococcus pyogenes
Description: as §1, §2

[4] = system: Strep. pyogenes 930 CONST; assay: In vitro antibacterial activity, agar dilution MIC; type: cell-based; details: Streptococcus pyogenes
Description: as §1, §2

[5] = system: Strep. pyogenes 2548 INDUC; assay: microbe, parasite or virus in culture; type: cell-based; details: Streptococcus pyogenes, 2548INDUC
Description: as §1, §2

M. luteus ATCC 9341 = assay: In vitro antibacterial activity, agar dilution MIC; type: cell-based; details: Micrococcus luteus, ATCC9341
Description: as §1, §2

M. luteus ATCC 4698 = assay: In vitro antibacterial activity, agar dilution MIC; type: cell-based; details: Micrococcus luteus, ATCC4698
Description: as §1, §2

Escherichia coli Juhl = assay: In vitro antibacterial activity, agar dilution MIC; type: cell-based
Description: as §1, §2

E. coli SS = assay: In vitro antibacterial activity, agar dilution MIC; type: cell-based; details: Escherichia coli
Description: as §1, §2

E. coli DC-2 = assay: In vitro antibacterial activity, agar dilution MIC; type: cell-based; details: Escherichia coli, DC2
Description: as §1, §2

E. coli H560 = assay: In vitro antibacterial activity, agar dilution MIC; type: cell-based; details: Escherichia coli
Description: as §1, §2

E. coli KNK 437 = assay: In vitro antibacterial activity, agar dilution MIC; type: cell-based; details: Escherichia coli, KNK437
Description: as §1, §2

[6] = system: Enter. aerogenes ATCC 13048; assay: In vitro antibacterial activity, agar dilution MIC; type: cell-based; details: Klebsiella aerogenes, ATCC13048
Description: as §1, §2

[7] = system: Klebs. pneumoniae ATCC 8045; assay: In vitro antibacterial activity, agar dilution MIC; type: cell-based; details: Klebsiella pneumoniae, ATCC8045
Description: as §1, §2

[8] = system: Providencia stuartii CMX 640; assay: In vitro antibacterial activity, agar dilution MIC; type: cell-based; details: CMX640
Description: as §1, §2

P. aeruginosa BMH 10 = assay: In vitro antibacterial activity, agar dilution MIC; type: cell-based; details: Pseudomonas aeruginosa, BMH10
Description: as §1, §2

P. aeruginosa A5007 = assay: In vitro antibacterial activity, agar dilution MIC; type: cell-based; details: Pseudomonas aeruginosa
Description: as §1, §2

P. aeruginosa K799/WT = assay: In vitro antibacterial activity, agar dilution MIC; type: cell-based; details: Pseudomonas aeruginosa
Description: as §1, §2

P. aeruginosa K799/61 = assay: In vitro antibacterial activity, agar dilution MIC; type: cell-based; details: Pseudomonas aeruginosa, K799/61
Description: as §1, §2

Pseudomonas cepacia 296I = assay: In vitro antibacterial activity, agar dilution MIC; type: cell-based; details: Burkholderia cepacia
Description: as §1, §2

[9] = system: Acinetob. calcoaceticus CMX 669; assay: In vitro antibacterial activity, agar dilution MIC; type: cell-based
Description: as §1, §2

P. aeruginosa 2862 = assay: In vitro antibacterial activity, agar dilution MIC; type: cell-based; details: Pseudomonas aeruginosa, 2862
Description: as §1, §2

Myco. smegmatis ATCC 114 = assay: In vitro antibacterial activity, agar dilution MIC; type: cell-based; details: Mycolicibacterium smegmatis, ATCC114
Description: as §1, §2

[10] = system: Nocardia asteroides ATCC 9970; assay: In vitro antibacterial activity, agar dilution MIC; type: cell-based; details: ATCC9970
Description: as §1, §2

P. aeruginosa 5263 = assay: microbe, parasite or virus in culture; details: Pseudomonas aeruginosa
Description: as §1, §2

Candida albicans CCH 442 = assay: In vitro antibacterial activity, agar dilution MIC; details: Candida albicans, CCH442
Description: as §1, §2

[11] = Staph. aureus CMX 553, BHI agar dilution, 20-24 hours, read-out: MIC
[12] = Strep. agalactiae CMX 508, BHI agar dilution, 20-24 hours, read-out: MIC
[13] = Klebs. pneumoniae ATCC 8045, BHI agar dilution, 20-24 hours, read-out: MIC
[14] = Providencia stuartii CMX 640, BHI agar dilution, 20-24 hours, read-out: MIC
[15] = Nocardia asteroides ATCC 9970, BHI agar dilution, 20-24 hours, read-out: MIC

Measured: MIC

O=C(O)c1cn(C2CC2)c2cc(N3CCNCC3)c(F)cc2c1=O [Control, ciprofloxacin, reference compound]
0.2 µg/mL: E. coli DC-2 | E. coli KNK 437 | P. aeruginosa A5007; A5007
0.005 µg/mL: E. coli SS
25 µg/mL: [10]; [15]
12.5 µg/mL: P. aeruginosa 2862 | P. aeruginosa 5263
0.05 µg/mL: Staph. aureus ATCC 6538P | Escherichia coli Juhl; Escherichia coli | [6]
0.1 µg/mL: P. aeruginosa BMH 10 | P. aeruginosa K799/WT; K799/WT
> 100 µg/mL: [1] | Candida albicans CCH 442
0.78 µg/mL: Staph. aureus CMX 553; [11] | [2]; Entero. faecium ATCC 8043, BHI agar dilution, 20-24 hours, read-out: MIC | [3]; [12] | [4]; Strep. pyogenes 930 CONST, BHI agar dilution, 20-24 hours, read-out: MIC | [8]; [14]
3.1 µg/mL: M. luteus ATCC 9341 | Pseudomonas cepacia 296I; 296I
0.39 µg/mL: Staph. aureus A5177; A5177 | Staph. aureus 5278; 5278 | Staph. aureus 642A; 642A | Staph. aureus NCTC10649M; NCTC10649M | Staph. epidermidis 3519; 3519 | Strep. pyogenes EES61; EES61 | [5] | [9]
0.02 µg/mL: P. aeruginosa K799/61
1.56 µg/mL: Strep. bovis A5169; A5169 | M. luteus ATCC 4698 | Myco. smegmatis ATCC 114
0.01 µg/mL: E. coli H560; H560 | [7]; [13]

Cc1c(N2C[C@@H]3CCCN[C@@H]3C2)c(F)cn2c(=O)c(C(=O)O)cc(C3CC3)c12 [Ex. 1, 1-cyclopropyl-8-(S,S-2,8-diaza-8-bicyclo[4.3.0]-nonyl)-7-fluoro-4H-9-methyl-4-oxo-quinolizine-3-carboxylic acid hydrochloride]
0.02 µg/mL: Staph. aureus A5177; A5177 | Staph. aureus 642A; 642A | Staph. epidermidis 3519; 3519 | [5] | [6] | P. aeruginosa K799/61 | [9] | Myco. smegmatis ATCC 114
0.05 µg/mL: Staph. aureus CMX 553 | Strep. bovis A5169; A5169 | [3] | Strep. pyogenes EES61; EES61 | [4]; 930CONST | E. coli DC-2 | E. coli KNK 437
0.39 µg/mL: [1] | [8]; Providencia stuartii
0.005 µg/mL: Escherichia coli Juhl; Escherichia coli | E. coli H560; H560
3.1 µg/mL: P. aeruginosa 2862 | [10]; Nocardia asteroides | P. aeruginosa 5263
> 100 µg/mL: Candida albicans CCH 442
0.78 µg/mL: Pseudomonas cepacia 296I; 296I
0.002 µg/mL: E. coli SS
0.1 µg/mL: [2] | M. luteus ATCC 9341 | M. luteus ATCC 4698 | P. aeruginosa BMH 10
0.01 µg/mL: Staph. aureus ATCC 6538P | Staph. aureus 5278; 5278 | Staph. aureus NCTC10649M; NCTC10649M | [7]
0.2 µg/mL: P. aeruginosa A5007; A5007 | P. aeruginosa K799/WT; K799/WT

CC[C@H]1CN(c2c(F)cn3c(=O)c(C(=O)O)cc(C4CC4)c3c2C)C[C@H]1N (relative stereo) [Ex. 3, 8-(cis-3-amino-4-ethylpyrrolidin-1-yl)-1-cyclopropyl-7-fluoro-4H-9-methyl-4-oxo-quinolizine-3-carboxylic acid hydrochloride diastereomer A]
0.1 µg/mL: [2] | Strep. bovis A5169; Strep. bovis A5169, BHI agar dilution, 20-24 hours, read-out: MIC | [3]; [12] | Strep. pyogenes EES61; Strep. pyogenes EES61, BHI agar dilution, 20-24 hours, read-out: MIC | M. luteus ATCC 9341 | M. luteus ATCC 4698 | E. coli KNK 437; E. coli KNK 437, BHI agar dilution, 20-24 hours, read-out: MIC
3.1 µg/mL: P. aeruginosa 2862 | P. aeruginosa 5263
0.01 µg/mL: Staph. aureus ATCC 6538P; Staph. aureus ATCC 6538P, BHI agar dilution, 20-24 hours, read-out: MIC | Staph. aureus NCTC10649M; Staph. aureus NCTC10649M, BHI agar dilution, 20-24 hours, read-out: MIC | E. coli H560; E. coli H560, BHI agar dilution, 20-24 hours, read-out: MIC
0.05 µg/mL: [4]; 930CONST | [5] | [6]; Enter. aerogenes ATCC 13048, BHI agar dilution, 20-24 hours, read-out: MIC
0.78 µg/mL: [1]; Staph. aureus 1775 Cipro. R., BHI agar dilution, 20-24 hours, read-out: MIC | [8]; [14] | Pseudomonas cepacia 296I; Pseudomonas cepacia 296I, BHI agar dilution, 20-24 hours, read-out: MIC
0.002 µg/mL: E. coli SS; E. coli SS, BHI agar dilution, 20-24 hours, read-out: MIC
0.02 µg/mL: Staph. aureus A5177; Staph. aureus A5177, BHI agar dilution, 20-24 hours, read-out: MIC | Staph. aureus 5278; Staph. aureus 5278, BHI agar dilution, 20-24 hours, read-out: MIC | Staph. aureus 642A; Staph. aureus 642A, BHI agar dilution, 20-24 hours, read-out: MIC | Staph. aureus CMX 553; [11] | Staph. epidermidis 3519; Staph. epidermidis 3519, BHI agar dilution, 20-24 hours, read-out: MIC | Escherichia coli Juhl; Escherichia coli Juhl, BHI agar dilution, 20-24 hours, read-out: MIC | [7]; [13] | P. aeruginosa K799/61 | [9]; Acinetob. calcoaceticus CMX 669, BHI agar dilution, 20-24 hours, read-out: MIC | Myco. smegmatis ATCC 114; Myco. smegmatis ATCC 114, BHI agar dilution, 20-24 hours, read-out: MIC
> 100 µg/mL: Candida albicans CCH 442
0.2 µg/mL: E. coli DC-2; E. coli DC-2, BHI agar dilution, 20-24 hours, read-out: MIC
0.39 µg/mL: P. aeruginosa BMH 10; P. aeruginosa BMH 10, BHI agar dilution, 20-24 hours, read-out: MIC | P. aeruginosa A5007; P. aeruginosa A5007, BHI agar dilution, 20-24 hours, read-out: MIC | P. aeruginosa K799/WT; P. aeruginosa K799/WT, BHI agar dilution, 20-24 hours, read-out: MIC | [10]; [15]
